According to ChEMBL document CHEMBL1201862, “PubChem BioAssay data set” (2004):
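Method: 48-hour compound exposure of cells in 96-well plates, five concentrations, linear interpolation of endpoints. GI50: concentration for 50% inhibition of growth.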 Calls of active or inactive are those of the source. Rule as the data show it: active = GI50 up to about 1.1 µM and inactive = higher.

How the values were obtained:
Experiment in all cases: DTP human tumour cell line panel, 48 h
786-0 = system: 786-0
A498 = system: A498
A549 = system: A549
ACHN = system: ACHN
CAKI-1 = system: CAKI-1
CCRF-CEM = system: CCRF-CEM
COLO 205 = system: COLO 205
DMS-114 = system: DMS-114
DMS-273 = system: DMS-273
EKVX = system: EKVX
HCC 2998 = system: HCC 2998
HCT-116 = system: HCT-116
HCT-15 = system: HCT-15
HL-60 = system: HL-60
HOP-62 = system: HOP-62
HT-29 = system: HT-29
IGROV-1 = system: IGROV-1
K562 = system: K562
KM-20L2 = system: KM-20L2
KM12 = system: KM12
LOX IMVI = system: LOX IMVI
M14 = system: M14
M19-MEL = system: M19-MEL
MOLT-4 = system: MOLT-4
Malme-3M = system: Malme-3M
NCI-H226 = system: NCI-H226
NCI-H23 = system: NCI-H23
NCI-H460 = system: NCI-H460
NCI-H522 = system: NCI-H522
OVCAR-3 = system: OVCAR-3
OVCAR-4 = system: OVCAR-4
OVCAR-5 = system: OVCAR-5
OVCAR-8 = system: OVCAR-8
RPMI-8226 = system: RPMI-8226
RXF 393 = system: RXF 393
SF-268 = system: SF-268
SF-295 = system: SF-295
SF-539 = system: SF-539
SK-MEL-28 = system: SK-MEL-28
SK-MEL-2 = system: SK-MEL-2
SK-MEL-5 = system: SK-MEL-5
SK-OV-3 = system: SK-OV-3
SN12C = system: SN12C
SNB-19 = system: SNB-19
SNB-75 = system: SNB-75
SNB-78 = system: SNB-78
SR = system: SR
SW-620 = system: SW-620
TK-10 = system: TK-10
U-251 = system: U-251
UACC-257 = system: UACC-257
UACC-62 = system: UACC-62
UO-31 = system: UO-31
XF498 = system: XF498
BT-549 = system: BT-549
DU-145 = system: DU-145
HOP-92 = system: HOP-92
Hs-578T = system: Hs-578T
MCF7 = system: MCF7
MDA-MB-231 = system: MDA-MB-231
MDA-MB-435 = system: MDA-MB-435
MDA-N = system: MDA-N
NCI/ADR-RES = system: NCI/ADR-RES
PC-3 = system: PC-3
T47D = system: T47D

With `COC(=O)c1c(C)oc2ccc(OC(C)=O)cc12` the GI50 (786-0) was > 100 µM (inactive), the GI50 (A498) was > 100 µM (inactive) and the GI50 (A549) was > 100 µM (inactive). The GI50 (ACHN) was > 100 µM (inactive), the GI50 (CAKI-1) was > 100 µM (inactive) and the GI50 (CCRF-CEM) was > 100 µM (inactive). The GI50 (COLO 205) was > 100 µM (inactive), the GI50 (DMS-114) was > 100 µM (inactive) and the GI50 (DMS-273) was > 100 µM (inactive). The GI50 (EKVX) was 54.3 µM (inactive), the GI50 (HCC 2998) was 30.5 µM (inactive) and the GI50 (HCT-116) was > 100 µM (inactive). For the same compound, the GI50 (HCT-15) was greater than 100 µM, the GI50 (HL-60) was > 100 µM (inactive) and the GI50 (HOP-62) was > 100 µM (inactive). For the same compound, the GI50 (HT-29) was 83 µM (inactive), the GI50 (IGROV-1) was > 100 µM (inactive) and the GI50 (K562) was > 100 µM (inactive). For the same compound, the GI50 (KM-20L2) was > 100 µM (inactive), the GI50 (KM12) was > 100 µM (inactive) and the GI50 (LOX IMVI) was > 100 µM (inactive). The GI50 (M14) was > 100 µM (inactive), the GI50 (M19-MEL) was > 100 µM (inactive) and the GI50 (MOLT-4) was > 100 µM (inactive). The GI50 (Malme-3M) was > 100 µM (inactive), the GI50 (NCI-H226) was > 100 µM (inactive) and the GI50 (NCI-H23) was > 100 µM (inactive). For the same compound, the GI50 (NCI-H460) was > 100 µM (inactive), the GI50 (NCI-H522) was > 100 µM (inactive) and the GI50 (OVCAR-3) was > 100 µM (inactive). For the same compound, the GI50 (OVCAR-4) was > 100 µM (inactive), the GI50 (OVCAR-5) was > 100 µM (inactive) and the GI50 (OVCAR-8) was > 100 µM (inactive). For the same compound, the GI50 (RPMI-8226) was > 100 µM (inactive), the GI50 (RXF 393) was > 100 µM (inactive) and the GI50 (SF-268) was 90.8 µM (inactive). For the same compound, the GI50 (SF-295) was > 100 µM (inactive), the GI50 (SF-539) was > 100 µM (inactive) and the GI50 (SK-MEL-28) was > 100 µM (inactive). The GI50 (SK-MEL-2) was > 100 µM (inactive), the GI50 (SK-MEL-5) was > 100 µM (inactive) and the GI50 (SK-OV-3) was > 100 µM (inactive). For the same compound, the GI50 (SN12C) was > 100 µM (inactive), the GI50 (SNB-19) was > 100 µM (inactive) and the GI50 (SNB-75) was 34.8 µM (inactive). For the same compound, the GI50 (SNB-78) was > 100 µM (inactive), the GI50 (SR) was > 100 µM (inactive) and the GI50 (SW-620) was > 100 µM (inactive). The GI50 (TK-10) was > 100 µM (inactive), the GI50 (U-251) was > 100 µM (inactive) and the GI50 (UACC-257) was > 100 µM (inactive). For the same compound, the GI50 (UACC-62) was 97.7 µM (inactive) and the GI50 (UO-31) was 33.6 µM (inactive).
`Cc1cc2c(cc1O)[nH]c1cc3c(cc12)C=CC(C)(C)O3` was tested, and the GI50 (COLO 205) was > 25 µM (inactive), the GI50 (DMS-114) was 10.6 µM (inactive) and the GI50 (K562) was > 25 µM (inactive). The GI50 (OVCAR-3) was 7.28 µM (inactive), the GI50 (OVCAR-4) was 10.5 µM (inactive) and the GI50 (OVCAR-5) was 17.7 µM (inactive). The GI50 (OVCAR-8) was 4.55 µM (inactive), the GI50 (RPMI-8226) was 9.1 µM (inactive) and the GI50 (SK-MEL-2) was > 25 µM (inactive). The GI50 (SK-OV-3) was > 25 µM (inactive), the GI50 (SNB-19) was > 25 µM (inactive) and the GI50 (SNB-78) was 11.3 µM (inactive). The GI50 (TK-10) was > 25 µM (inactive) and the GI50 (XF498) was > 25 µM (inactive).
With `CCOC(=O)c1ccc(NC(=O)Oc2ccc3c(C)cc(=O)oc3c2)cc1` the GI50 (786-0) was 45.6 µM (inactive), the GI50 (A498) was > 100 µM (inactive) and the GI50 (A549) was 43.7 µM (inactive). The GI50 (ACHN) was 41.4 µM (inactive), the GI50 (BT-549) was 17.2 µM (inactive) and the GI50 (CAKI-1) was 36.1 µM (inactive). For the same compound, the GI50 (CCRF-CEM) was 22.6 µM (inactive), the GI50 (COLO 205) was 34.2 µM (inactive) and the GI50 (DU-145) was 37.2 µM (inactive). The GI50 (EKVX) was 42.9 µM (inactive), the GI50 (HCC 2998) was 23.7 µM (inactive) and the GI50 (HCT-116) was 28.2 µM (inactive). The GI50 (HCT-15) was 33.7 µM, the GI50 (HL-60) was 30.4 µM (inactive) and the GI50 (HOP-62) was 31.6 µM (inactive). For the same compound, the GI50 (HOP-92) was 23.7 µM (inactive), the GI50 (HT-29) was 32.7 µM (inactive) and the GI50 (Hs-578T) was 29.6 µM (inactive). For the same compound, the GI50 (IGROV-1) was 38.5 µM (inactive), the GI50 (K562) was 24.3 µM (inactive) and the GI50 (KM12) was 20.9 µM (inactive). The GI50 (LOX IMVI) was 34.5 µM (inactive), the GI50 (M14) was 28.5 µM (inactive) and the GI50 (MCF7) was 30.8 µM (inactive). The GI50 (MDA-MB-231) was 30.3 µM (inactive), the GI50 (MDA-MB-435) was 35.6 µM (inactive) and the GI50 (MDA-N) was 32.1 µM (inactive). For the same compound, the GI50 (MOLT-4) was 22.5 µM (inactive), the GI50 (Malme-3M) was 42.6 µM (inactive) and the GI50 (NCI-H226) was 32.7 µM (inactive). The GI50 (NCI-H23) was 32.4 µM (inactive), the GI50 (NCI-H460) was 29.6 µM (inactive) and the GI50 (NCI-H522) was 18.7 µM (inactive). For the same compound, the GI50 (NCI/ADR-RES) was 37 µM (inactive), the GI50 (OVCAR-3) was 32.7 µM (inactive) and the GI50 (OVCAR-4) was 50.1 µM (inactive). For the same compound, the GI50 (OVCAR-5) was 23.1 µM (inactive), the GI50 (OVCAR-8) was 35.5 µM (inactive) and the GI50 (PC-3) was 38.4 µM (inactive). The GI50 (RPMI-8226) was 30.3 µM (inactive), the GI50 (RXF 393) was 58.6 µM (inactive) and the GI50 (SF-268) was 37 µM (inactive). The GI50 (SF-295) was 30.1 µM (inactive), the GI50 (SF-539) was > 100 µM (inactive) and the GI50 (SK-MEL-28) was 34.9 µM (inactive). For the same compound, the GI50 (SK-MEL-2) was 23 µM (inactive), the GI50 (SK-MEL-5) was 14.7 µM (inactive) and the GI50 (SK-OV-3) was 29.6 µM (inactive). The GI50 (SN12C) was 33.1 µM (inactive), the GI50 (SNB-19) was 29.7 µM (inactive) and the GI50 (SNB-75) was 32 µM (inactive). For the same compound, the GI50 (SR) was 24.2 µM (inactive), the GI50 (SW-620) was 36.2 µM (inactive) and the GI50 (T47D) was 22.2 µM (inactive). For the same compound, the GI50 (TK-10) was > 100 µM (inactive), the GI50 (U-251) was 32.9 µM (inactive) and the GI50 (UACC-257) was 43.2 µM (inactive). For the same compound, the GI50 (UACC-62) was 31.8 µM (inactive) and the GI50 (UO-31) was 33.1 µM (inactive).
